The values that follow come from ChEMBL document CHEMBL1212714, “Dentigerumycin: a bacterial mediator of an ant-fungus symbiosis” (2009).

In brackets after ≈: the same amount, converted by molar mass. Activity calls are given as the source filed them. The rule behind the calls is not given here.

The test system of assay [1] is Candida albicans. Nature of the assay: Antifungal activity against wild type Candida albicans at 37degC after 48 hrs by liquid culture assay. Format: functional.
In assay [2] the test system is Candida albicans. Briefly: Antifungal activity against Candida albicans ATCC 200955 at 37degC after 48 hrs by liquid culture assay. Conditions: ATCC 200955, 48 h. Format: functional.
Assay [3] in a line: Antifungal activity against Escovopsis at 37degC after 48 hrs by liquid culture assay. It counts as functional.
For assay [4], the system named is ant fungal cultivar CC011120-4 (mutualistic fungus). Briefly: Antifungal activity against ant fungal cultivar CC011120-4 assessed as growth inhibition at 5 mg/ml by plate antifungal assay.
In assay [5] the test system is Candida albicans. Nature of the assay: Antifungal activity against Candida albicans ATCC 10231 at 37degC after 48 hrs by liquid culture assay. Format: functional. The note with it: ATCC 10231, 48 h.
Assay [6] deals with Escovopsis. Briefly: Antifungal activity against Escovopsis CC011120-4 assessed as growth inhibition at 5 mg/ml by plate antifungal assay. It counts as functional.

As for `CCC[C@H]1CC[C@](O)([C@](C)(O)C(=O)N[C@@H]2C(=O)N3NCCC[C@@H]3C(=O)N(O)[C@@H](C)C(=O)N3NCCC[C@@H]3C(=O)N3NC[C@@H](O)C[C@H]3C(=O)N[C@@H](C)C(=O)O[C@H]2C(C)C)O[C@@H]1CC` [DENTIGERUMYCIN], the MIC was determined as 1.1 µM (≈ 0.97 µg/mL) in assay [1], 1.1 µM (≈ 0.97 µg/mL) in assay [2], 2.8 µM (≈ 2.47 µg/mL) in assay [3] and 1.1 µM (≈ 0.97 µg/mL) in assay [5]. Also, in assay [4], the “growth inhibition (GI)” value was “inactive”. Also, the “growth inhibition (GI)” value in assay [6] is “Active”.

The MIC is the least concentration at which growth counts as inhibited. Read a low MIC as greater potency.
